Test results taken from US20240018122A1, “PYRIDAZINYL AMINO DERIVATIVES AS ALK5 INHIBITORS” (CHIESI FARMACEUTICI S.P.A., priority 2020, published 2024).
Like-named read-outs stand apart in the source and are kept apart here.

Target: human ALK5 (Homo sapiens (Human), UniProt P36897)
Assay: ADP-GLO Kinases assay, inhibitory activity on ALK5
Type: biochemical
Description: The enzymatic activity of compounds of the present invention was monitored measuring the formation of ADP using the ADP-GLO Kinases assay. Following the incubation of the purified enzyme, a substrate and ATP, the produced ADP was converted into ATP, which in turn was converted into light by Ultra-Glo Luciferase. The luminescent signal positively correlated with ADP amount and kinase activity. […] The assay was performed in 384-well format and was validated using a selection of reference compounds that was tested in 11 point concentration-response curve.

[1] = purified recombinant human ALK5 2.6 nM, TGFβ1 peptide substrate, 25° C, 150 min incubation, ADP-Glo detection, read-out: ALK5 IC50

Chain of human ALK5 (P36897 80-503 limits assumed): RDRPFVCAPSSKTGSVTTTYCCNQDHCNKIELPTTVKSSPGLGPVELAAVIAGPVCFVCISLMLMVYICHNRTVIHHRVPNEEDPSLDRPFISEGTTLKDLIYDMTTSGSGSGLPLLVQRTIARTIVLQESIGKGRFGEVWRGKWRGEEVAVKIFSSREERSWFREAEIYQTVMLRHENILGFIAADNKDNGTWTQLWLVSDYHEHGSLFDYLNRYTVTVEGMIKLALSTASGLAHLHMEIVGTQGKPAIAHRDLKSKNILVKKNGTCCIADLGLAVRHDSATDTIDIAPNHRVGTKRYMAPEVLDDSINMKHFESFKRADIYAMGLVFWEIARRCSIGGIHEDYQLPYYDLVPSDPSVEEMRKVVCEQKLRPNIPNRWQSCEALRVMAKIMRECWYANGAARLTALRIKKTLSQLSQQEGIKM

Molecule | IC50 [1] [nM] | IC50 [nM]
1-(4-{[6-(2-Chloro-5-Fluorophenyl)-3-Methylpyridazin-4-Yl]Amino}Pyridin-2-Yl)-3-[(1-Methylpiperidin-4-Yl)Methyl]Urea [Example 142] | < 1 | –
O=C(CCN1CCNCC1)Nc1cc(Nc2cnnc(-c3cc(Cl)ccc3F)c2)ccn1 [Example 2, N-(4-{[6-(5-Chloro-2-Fluorophenyl)Pyridazin-4-Yl]Amino}Pyridin-2-Yl)-3-(Piperazin-1-Yl)Propanamide] | < 1 | –
O=C(Nc1cc(Nc2cnnc(-c3cc(Cl)ccc3F)c2)ccn1)C1CC1 [Example 7, N-(4-{[6-(5-Chloro-2-Fluorophenyl)Pyridazin-4-Yl]Amino}Pyridin-2-Yl)Cyclopropanecarboxamide] | < 1 | –
Fc1ccc(Cl)cc1-c1cc(Nc2ccnc3cc(OCCN4CCNCC4)ccc23)cnn1 [Example 9, N-[6-(5-chloro-2-fluorophenyl)pyridazin-4-yl]-7-[2-(piperazin-1-yl)ethoxy]quinolin-4-amine] | < 1 | –
CN1CCN(CCOc2ccc3c(Nc4cnnc(-c5cc(Cl)ccc5F)c4)ccnc3c2)CC1 [Example 12, N-[6-(5-Chloro-2-Fluorophenyl)Pyridazin-4-Yl]-7-[2-(4-Methylpiperazin-1-Yl)Ethoxy]Quinolin-4-Amine] | < 1 | –
CN1CCN(CCNC(=O)c2ccc3c(Nc4cnnc(-c5cc(Cl)ccc5F)c4)ccnc3c2)CC1 [Example 13, 4-{[6-(5-Chloro-2-Fluorophenyl)Pyridazin-4-Yl]Amino}-N-[3-(4-Methylpiperazin-1-Yl)Ethyl]Quinoline-7-Carboxamide] | < 1 | –
Cc1nnc(-c2cc(Cl)ccc2F)cc1Nc1ccnc(NC(=O)CCN2CCN(C)CC2)c1 [Example 16, N-(4-{[6-(5-chloro-2-fluorophenyl)-3-methylpyridazin-4-yl]amino}pyridin-2-yl)-3-(4-methylpiperazin-1-yl)propanamide] | < 1 | –
CN(CCC(=O)Nc1cc(Nc2cnnc(-c3cc(Cl)ccc3F)c2)ccn1)C1COC1 [Example 18, N-(4-{[6-(5-Chloro-2-Fluorophenyl)Pyridazin-4-Yl]Amino}Pyridin-2-Yl)-3-[Methyl(Oxetan-3-Yl)Amino]Propanamide] | < 1 | –
CN1CCC(OC(=O)c2ccc3c(Nc4cnnc(-c5cc(Cl)ccc5F)c4)ccnc3c2)CC1 [Example 20, 1-Methylpiperidin-4-Yl 4-{[6-(5-Chloro-2-Fluorophenyl)Pyridazin-4-Yl]Amino}Quinoline-7-Carboxylate] | < 1 | –
CN1CCN(CCC(=O)Nc2cc(Nc3cnnc(-c4cc(Cl)ccc4F)c3)ccn2)CC1=O [Example 24, N-(4-{[6-(5-Chloro-2-Fluorophenyl)Pyridazin-4-Yl]Amino}Pyridin-2-Yl)-3-(4-Methyl-3-Oxopiperazin-1-Yl)Propanamide] | 1 to 5 | –
CN1CCC(CCNC(=O)c2cc3c(Nc4cnnc(-c5cc(Cl)ccc5F)c4)ccnc3[nH]2)CC1 [Example 27, 4-{[6-(5-Chloro-2-Fluorophenyl)Pyridazin-4-Yl]Amino}-N-[2-(1-Methylpiperidin-4-Yl)Ethyl]-1H-Pyrrolo[2,3-b]Pyridine-2-Carboxamide] | < 1 | –
CN1CCN(C(=O)Oc2ccc3c(Nc4cnnc(-c5cc(Cl)ccc5F)c4)ccnc3c2)CC1 [Example 28, 4-{[6-(5-Chloro-2-Fluorophenyl)Pyridazin-4-Yl]Amino}Quinolin-7-Yl 4-Methylpiperazine-1-Carboxylate] | – | 1 to 5
CN1CCCN(CCC(=O)Nc2cc(Nc3cnnc(-c4cc(Cl)ccc4F)c3)ccn2)C1 [Example 33, N-(4-{[6-(5-Chloro-2-Fluorophenyl)Pyridazin-4-Yl]Amino}Pyridin-2-Yl)-3-(3-Methyl-1,3-Diazinan-1-Yl)Propanamide] | < 1 | –
CS(=O)(=O)N1CCN(CCC(=O)Nc2cc(Nc3cnnc(-c4cc(Cl)ccc4F)c3)ccn2)CC1 [Example 34, N-(4-{[6-(5-Chloro-2-Fluorophenyl)Pyridazin-4-Yl]Amino}Pyridin-2-Yl)-3-(4-Methanesulfonylpiperazin-1-Yl)Propanamide] | 1 to 5 | –
CS(=O)(=O)N1CCN(CCOc2ccc3c(Nc4cnnc(-c5cc(Cl)ccc5F)c4)ccnc3c2)CC1 [Example 36, N-[6-(5-Chloro-2-Fluorophenyl)Pyridazin-4-Yl]-7-[2-(4-Methanesulfonylpiperazin-1-Yl)Ethoxy]Quinolin-4-Amine] | < 1 | –

Continued, in another order:

IC50 [1] [nM] | Molecule | IC50 [nM]
< 1 | Fc1ccc(Cl)cc1-c1cc(Nc2ccnc3cc(OCCN4CCOCC4)ccc23)cnn1 [Example 3, N-[6-(5-Chloro-2-Fluorophenyl)Pyridazin-4-Yl]-7-[2-(Morpholin-4-Yl)Ethoxy]Quinolin-4-Amine] | –
< 1 | O=C(NCCN1CCOCC1)c1ccc2c(Nc3cnnc(-c4cc(Cl)ccc4F)c3)ccnc2c1 [Example 4, 4-{[6-(5-Chloro-2-Fluorophenyl)Pyridazin-4-Yl]Amino}-N-[2-(Morpholin-4-Yl)Ethyl]Quinoline-7-Carboxamide] | –
5 to 10 | O=C(OCCN1CCOCC1)c1ccc2nccc(Nc3cnnc(-c4cc(Cl)ccc4F)c3)c2c1 [Example 5, 2-(Morpholin-4-Yl)Ethyl 4-{[6-(5-Chloro-2-Fluorophenyl)Pyridazin-4-Yl]Amino}Quinoline-6-Carboxylate] | –
< 1 | O=C(OCCN1CCOCC1)c1ccc2c(Nc3cnnc(-c4cc(Cl)ccc4F)c3)ccnc2c1 [Example 6, 2-(Morpholin-4-Yl)Ethyl 4-{[6-(5-Chloro-2-Fluorophenyl)Pyridazin-4-Yl]Amino}Quinoline-7-Carboxylate] | –
< 1 | O=C(CCCN1CCOCC1)Nc1cc(Nc2cnnc(-c3cc(Cl)ccc3F)c2)ccn1 [Example 8, N-(4-{[6-(5-Chloro-2-Fluorophenyl)Pyridazin-4-Yl]Amino}Pyridin-2-Yl)-4-(Morpholin-4-Yl)Butanamide] | –
< 1 | O=C(NCCN1CCNCC1)c1ccc2c(Nc3cnnc(-c4cc(Cl)ccc4F)c3)ccnc2c1 [Example 10, 4-{[6-(5-Chloro-2-Fluorophenyl)Pyridazin-4-Yl]Amino}-N-[2-(Piperazin-1-Yl)Ethyl]Quinoline-7-Carboxamide] | –
< 1 | CN1CCC(CCNC(=O)c2ccc3c(Nc4cnnc(-c5cc(Cl)ccc5F)c4)ccnc3c2)CC1 [Example 14, 4-{[6-(5-Chloro-2-Fluorophenyl)Pyridazin-4-Yl]Amino}-N-[2-(1-Methylpiperidin-4-Yl)Ethyl]Quinoline-7-Carboxamide] | –
< 1 | CN1CCC(CCOc2ccc3c(Nc4cnnc(-c5cc(Cl)ccc5F)c4)ccnc3c2)CC1 [Example 17, N-[6-(5-Chloro-2-Fluorophenyl)Pyridazin-4-Yl]-7-[2-(1-Methylpiperidin-4-Yl)Ethoxy]Quinolin-4-Amine] | –
1 to 5 | CN1CCN(CCNC(=O)c2c[nH]c3nccc(Nc4cnnc(-c5cc(Cl)ccc5F)c4)c23)CC1 [Example 21, 4-{[6-(5-Chloro-2-Fluorophenyl)Pyridazin-4-Yl]Amino}-N-[2-(4-Methylpiperazin-1-Yl)Ethyl]-1H-Pyrrolo[2,3-13]Pyridine-3-Carboxamide] | –
1 to 5 | CN1CCN(CCC(=O)Nc2cc(Nc3cnnc(-c4cc(Cl)ccc4F)c3)ccn2)C(=O)C1 [Example 22, N-(4-{[6-(5-Chloro-2-Fluorophenyl)Pyridazin-4-Yl]Amino}Pyridin-2-Yl)-3-(4-Methyl-2-Oxopiperazin-1-Yl)Propanamide] | –
5 to 10 | CN1CC(NC(=O)c2cc3c(Nc4cnnc(-c5cc(Cl)ccc5F)c4)ccnc3cn2)C1 [Example 23, 4-{[6-(5-Chloro-2-Fluorophenyl)Pyridazin-4-Yl]Amino}-N-(1-Methylazetidin-3-Yl)-1,7-Naphthyridine-6-Carboxamide] | –
< 1 | CN1CCN(CCNC(=O)c2cc3c(Nc4cnnc(-c5cc(Cl)ccc5F)c4)ccnc3[nH]2)CC1 [Example 25, 4-{[6-(5-chloro-2-fluorophenyl)pyridazin-4-yl]amino}-N-[2-(4-methylpiperazin-1-yl)ethyl]-1H-pyrrolo[2,3-b]pyridine-2-carboxamide] | –
1 to 5 | CN1CCC(NC(=O)c2cc3c(Nc4cnnc(-c5cc(Cl)ccc5F)c4)ccnc3cn2)CC1 [Example 26, 4-{[6-(5-Chloro-2-Fluorophenyl)Pyridazin-4-Yl]Amino}-N-(1-Methylpiperidin-4-Yl)-1,7-Naphthyridine-6-Carboxamide] | –
< 1 | CN1CCN(CCCOc2ccc3c(Nc4cnnc(-c5cc(Cl)ccc5F)c4)ccnc3c2)CC1 [Example 29, N-[6-(5-Chloro-2-Fluorophenyl)Pyridazin-4-Yl]-7-[3-(4-Methylpiperazin-1-Yl)Propoxy]Quinolin-4-Amine] | –
< 1 | CCN1CCN(CCOc2ccc3c(Nc4cnnc(-c5cc(Cl)ccc5F)c4)ccnc3c2)CC1 [Example 30, N-[6-(5-Chloro-2-Fluorophenyl)Pyridazin-4-Yl]-7-[2-(4-Ethylpiperazin-1-Yl)Ethoxy]Quinolin-4-Amine] | –
< 1 | CC(=O)N1CCN(CCC(=O)Nc2cc(Nc3cnnc(-c4cc(Cl)ccc4F)c3)ccn2)CC1 [Example 31, 3-(4-Acetylpiperazin-1-Yl)-N-(4-{[6-(5-Chloro-2-Fluorophenyl)Pyridazin-4-Yl]Amino}Pyridin-2-Yl)Propanamide] | –
< 1 | CN1CCN(CCC(=O)Nc2ccc3c(Nc4cnnc(-c5cc(Cl)ccc5F)c4)ccnc3c2)CC1 [Example 32, N-(4-{[6-(5-Chloro-2-Fluorophenyl)Pyridazin-4-Yl]Amino}Quinolin-7-Yl)-3-(4-Methylpiperazin-1-Yl)Propanamide] | –
< 1 | CC(=O)N1CCN(CCOc2ccc3c(Nc4cnnc(-c5cc(Cl)ccc5F)c4)ccnc3c2)CC1 [Example 35, 1-(4-{2-[(4-{[6-(5-Chloro-2-Fluorophenyl)Pyridazin-4-Yl]Amino}Quinolin-7-Yl)Oxy]Ethyl}Piperazin-1-Yl)Ethan-1-One] | –
< 1 | CC(C)c1ccc(F)c(-c2cc(Nc3ccnc4cc(OCCN5CCN(C)CC5)ccc34)cnn2)c1 [Example 37, N-{6-[2-Fluoro-5-(Propan-2-Yl)Phenyl]Pyridazin-4-Yl}-7-[2-(4-Methylpiperazin-1-Yl)Ethoxy]Quinolin-4-Amine] | –
